The structures appear in SMILES notation. Structures can show the parent of a compound that is named as a salt.

What all share (assay type): biochemical
In one assay the target is activated human C1 (Homo sapiens, UniProt P09871). Briefly: Test Code 026 (C1 inhibitor). Particulars: serial dilution assay, twofold dilutions; higher well number indicates higher activity. From the text:
(§1) An active inhibitor protects C2 from C1 and C4; (ii) Test Code 035 (C3-C9 inhibitor)--This test determines the ability of the late components of human complement (C3-C9) to lyse EAC 142 in the presence of appropriate dilutions of the test compound. An active inhibitor protects EAC 142 from lysis by human C3-C9; (iii) Test Code 036 (C-Shunt inhibitor)--In this test human erythrocytes rendered fragile are lysed in autologous serum via the shunt pathway activated by cobra venom factor in the presence of appropriate dilutions of the test compound. Inhibition of the shunt pathway results in failure of lysis; (iv) Forssman Vasculitis Test--Here, the well known complement dependent lesion, Forssman Vasculitis, is produced in guinea pigs by intradermal injection of rabbit anti-Forssman antiserum. The lesion is measured in terms of diameter, edema and hemorrhage and the extent to which a combined index of these is inhibited by prior intraperitoneal injection of the test compound at 200 mg/kg is then reported, unless otherwise stated; (v) Forssman Shock Test--Lethal shock is produced in guinea pigs by an i.v. injection of anti-Forssman antiserum and the harmonic mean death time of treated guinea pigs is compared with that of simultaneous controls; (vi) Complement Level Reduction Test--In this test, the above dosed guinea pigs, or others, are bled for serum and the complement level is determined in undiluted serum by the capillary tube method of U.S. Pat. No. 3,876,376 and compared to undosed control guinea pigs; and (vii) Cap 50 Test--Here, appropriate amounts of the test compound are added to a pool of guinea pig serum in vitro, after which the undiluted serum capillary tube assay referred to above is run. The concentration of compound inhibiting 50% is reported.

Assay [1] has as its system late components of human complement (C3-C9). Description: Test Code 035 (C3-C9 inhibitor), lysis of EAC 142. Particulars: serial dilution assay, twofold dilutions; higher well number indicates higher activity; N = Negative.
Excerpt: as §1

The subject of the next assay is shunt pathway. Description: Test Code 036 (C-Shunt inhibitor), lysis of fragile human erythrocytes in autologous serum, cobra venom factor. Particulars: serial dilution assay, twofold dilutions; higher well number indicates higher activity; N = Negative.
Excerpt: as §1

With `C[C@H]1O[C@@H]2O[C@H]3[C@H](OS(=O)(=O)O)[C@@H](OS(=O)(=O)O)[C@@H](O[C@H]4[C@H](OS(=O)(=O)O)[C@@H](OS(=O)(=O)O)[C@@H](O[C@H]5[C@H](OS(=O)(=O)O)[C@@H](OS(=O)(=O)O)[C@@H](O[C@H]6[C@H](OS(=O)(=O)O)[C@@H](OS(=O)(=O)O)[C@@H](O[C@H]7[C@H](OS(=O)(=O)O)[C@@H](OS(=O)(=O)O)[C@@H](O[C@H]1[C@H](OS(=O)(=O)O)[C@H]2OS(=O)(=O)O)O[C@@H]7C)O[C@@H]6C)O[C@@H]5C)O[C@@H]4C)O[C@@H]3C` [α-Cyclo[6-deoxy]dextrin poly(H-sulfate)poly-trimethylamine s] [6,6',6",6'",6"",6'""-Hexadeoxy-α-cyclodextrin, dodecakis(H-sulfate), dodecasalt with trimethylamine], at activated human C1, the “026 Activity in wells” value is listed as 7 wells. Besides, the “035 Activity in wells” value in assay [1] is recorded as “N”. The “036 Activity in wells” value in the assay on shunt pathway came to 3 wells.
On the same counts, the results for `[N-]=[N+]=NC[C@H]1O[C@@H]2O[C@H]3[C@H](OS(=O)(=O)O)[C@@H](OS(=O)(=O)O)[C@@H](O[C@H]4[C@H](OS(=O)(=O)O)[C@@H](OS(=O)(=O)O)[C@@H](O[C@H]5[C@H](OS(=O)(=O)O)[C@@H](OS(=O)(=O)O)[C@@H](O[C@H]6[C@H](OS(=O)(=O)O)[C@@H](OS(=O)(=O)O)[C@@H](O[C@H]7[C@H](OS(=O)(=O)O)[C@@H](OS(=O)(=O)O)[C@@H](O[C@H]8[C@H](OS(=O)(=O)O)[C@@H](OS(=O)(=O)O)[C@@H](O[C@H]1[C@H](OS(=O)(=O)O)[C@H]2OS(=O)(=O)O)O[C@@H]8CN=[N+]=[N-])O[C@@H]7CN=[N+]=[N-])O[C@@H]6CN=[N+]=[N-])O[C@@H]5CN=[N+]=[N-])O[C@@H]4CN=[N+]=[N-])O[C@@H]3CN=[N+]=[N-]` [β-Cyclo[6-azido-6-deoxy]dextrin poly(H-sulfate)poly-sodium s] [6,6',6",6'",6"",6'"",6"""-Heptaazido-6,6',6",6'",6"",6'"",6"""-heptadeoxy-β-cyclodextrin, tetradecakis(H-sulfate), tetradecasoium salt] are 6 wells, 2 wells and 4 wells.
On the same counts, the results for `[N-]=[N+]=NC[C@H]1O[C@@H]2O[C@H]3[C@H](OS(=O)(=O)O)[C@@H](OS(=O)(=O)O)[C@@H](O[C@H]4[C@H](OS(=O)(=O)O)[C@@H](OS(=O)(=O)O)[C@@H](O[C@H]5[C@H](OS(=O)(=O)O)[C@@H](OS(=O)(=O)O)[C@@H](O[C@H]6[C@H](OS(=O)(=O)O)[C@@H](OS(=O)(=O)O)[C@@H](O[C@H]7[C@H](OS(=O)(=O)O)[C@@H](OS(=O)(=O)O)[C@@H](O[C@H]8[C@H](OS(=O)(=O)O)[C@@H](OS(=O)(=O)O)[C@@H](O[C@H]1[C@H](OS(=O)(=O)O)[C@H]2OS(=O)(=O)O)O[C@@H]8CN=[N+]=[N-])O[C@@H]7CN=[N+]=[N-])O[C@@H]6CN=[N+]=[N-])O[C@@H]5CN=[N+]=[N-])O[C@@H]4CN=[N+]=[N-])O[C@@H]3CN=[N+]=[N-]` [β-Cyclo[6-azido-6-deoxy]dextrin poly(H-sulfate)poly-trimethy] [6,6',6",6'",6"",6'"",6"""-Heptaazido-6,6',6",6'",6"",6'"",6"""-heptadeoxy-β-cyclodextrin, tetradecakis(H-sulfate), tetradecasalt with trimethylamine] are 2 wells, “N” and “N”.
On the same counts, the results for `O=S(=O)(O)O[C@@H]1[C@@H](OS(=O)(=O)O)[C@H]2O[C@H]3[C@H](OS(=O)(=O)O)[C@@H](OS(=O)(=O)O)[C@@H](O[C@H]4[C@H](OS(=O)(=O)O)[C@@H](OS(=O)(=O)O)[C@@H](O[C@H]5[C@H](OS(=O)(=O)O)[C@@H](OS(=O)(=O)O)[C@@H](O[C@H]6[C@H](OS(=O)(=O)O)[C@@H](OS(=O)(=O)O)[C@@H](O[C@H]7[C@H](OS(=O)(=O)O)[C@@H](OS(=O)(=O)O)[C@@H](O[C@H]8[C@H](OS(=O)(=O)O)[C@@H](OS(=O)(=O)O)[C@@H](O[C@@H]1[C@@H](CBr)O2)O[C@@H]8CBr)O[C@@H]7CBr)O[C@@H]6CBr)O[C@@H]5CBr)O[C@@H]4CBr)O[C@@H]3CBr` [β-Cyclo[6-bromo-6-deoxy]dextrin poly(H-sulfate)poly-sodium s] [6,6',6",6'",6"",6'"",6"""-Heptabromo-6,6',6",6'",6"",6'"",6"""-heptadeoxy-β-cyclodextrin, tetradecakis(H-sulfate), tetradecasodium salt] are 7 wells, 3 wells and 5 wells.
Turning to `O=S(=O)(O)O[C@@H]1[C@@H](OS(=O)(=O)O)[C@H]2O[C@H]3[C@H](OS(=O)(=O)O)[C@@H](OS(=O)(=O)O)[C@@H](O[C@H]4[C@H](OS(=O)(=O)O)[C@@H](OS(=O)(=O)O)[C@@H](O[C@H]5[C@H](OS(=O)(=O)O)[C@@H](OS(=O)(=O)O)[C@@H](O[C@H]6[C@H](OS(=O)(=O)O)[C@@H](OS(=O)(=O)O)[C@@H](O[C@H]7[C@H](OS(=O)(=O)O)[C@@H](OS(=O)(=O)O)[C@@H](O[C@H]8[C@H](OS(=O)(=O)O)[C@@H](OS(=O)(=O)O)[C@@H](O[C@@H]1[C@@H](CBr)O2)O[C@@H]8CBr)O[C@@H]7CBr)O[C@@H]6CBr)O[C@@H]5CBr)O[C@@H]4CBr)O[C@@H]3CBr` [β-Cyclo[6-bromo-6-dexoy]dextrin poly(H-sulfate)poly-trimethy] [6,6',6",6'",6"",6'""-Heptabromo-6,6',6",6'",6"",6'"",6"""-heptadeoxy-β-cyclodextrin tetradecakis(H-sulfate), tatradecasalt with trimethylamine], on activated human C1, the “026 Activity in wells” value is 6 wells. For the same molecule, the “035 Activity in wells” value in assay [1] worked out at 3 wells. In addition, the “036 Activity in wells” value in the assay on shunt pathway is reported as 4 wells.
As to `N#CSC[C@H]1O[C@@H]2O[C@H]3[C@H](OS(=O)(=O)O)[C@@H](OS(=O)(=O)O)[C@@H](O[C@H]4[C@H](OS(=O)(=O)O)[C@@H](OS(=O)(=O)O)[C@@H](O[C@H]5[C@H](OS(=O)(=O)O)[C@@H](OS(=O)(=O)O)[C@@H](O[C@H]6[C@H](OS(=O)(=O)O)[C@@H](OS(=O)(=O)O)[C@@H](O[C@H]7[C@H](OS(=O)(=O)O)[C@@H](OS(=O)(=O)O)[C@@H](O[C@H]8[C@H](OS(=O)(=O)O)[C@@H](OS(=O)(=O)O)[C@@H](O[C@H]1[C@H](OS(=O)(=O)O)[C@H]2OS(=O)(=O)O)O[C@@H]8CSC#N)O[C@@H]7CSC#N)O[C@@H]6CSC#N)O[C@@H]5CSC#N)O[C@@H]4CSC#N)O[C@@H]3CSC#N` [β-Cyclo[6-deoxy-6-thiocyanato]dextrin poly(H-sulfate)poly-so] [6,6',6",6'",6"",6'"",6"""-Heptadeoxy-6,6',6",6'",6"",6'"",6"""-heptathiocyanato-β-cyclodextrin, tetradecakis(H-sulfate), tetradecasodium salt], on activated human C1, the “026 Activity in wells” value is recorded as 7 wells. Besides, in assay [1], the “035 Activity in wells” value was 2 wells. The “036 Activity in wells” value in the assay on shunt pathway was 4 wells.

These data come from patent US4258180A, “C6-Modified cyclodextrin sulfate salts as complement inhibitors” (American Cyanamid Company, priority 1979, dated 1981).
